Assay results published in patent US20200299329A1, “SYNTHETIC PEPTIDES, PHARMACEUTICAL COMPOSITIONS COMPRISING THE SAME, AND USES THEREOF IN TREATING THROMBOEMBOLISM-RELATED DISEASES” (Academia Sinica, priority 2019, published 2020).

Key:
human thrombus = assay: Screening of thrombus-binding activity of phages by ELISA; conditions: for dose-dependent thrombus-specific binding by ELISA: BSA binding as negative control, FIG. 1C/1D; for binding affinity to human thrombus (ELISA, absorption at 450 nm): screening of 72 phage clones from the fifth round of biopanning, FIG. 1B
Protocol: A human thrombus was isolated and collected from a cadaver about 20 years ago in a course of fresh cadaver dissection and partial thrombus was grounded to powder and then incubated with 2×10^11 phages in 1% BSA in PBS at 4° C. for 1 hour. After washing with PBS, the bound phages were eluted from the thrombus tissue and amplified using E. coli for subsequent rounds of selection. The eluted and amplified phages were titrated on lysogeny broth (LB) medium plates containing isopropyl β-D-1-thiogalactopyranoside (IPTG) and X-Gal (5-bromo-4-chloro-3-indolyl-D-galactoside). The biopanning steps described above were repeated five times before phage clones were randomly selected for thrombus ELISA screening.
The grinded human thrombus tissue or BSA in coating buffer was used to coat 96-well ELISA plates overnight. After blocking and washing, the selected phage clones were added and incubated for 1 hour at room temperature (RT). After washing with PBS, each well was probed with horseradish peroxidase (HRP)-conjugated mouse anti-M13 antibodies (1:2000 dilution) for 1 hour at RT. After repeating the wash step, the plates were developed with ELISA substrate solution. The reaction was terminated with 3N hydrochloric acid, and the absorbance of the colorimetric substrate was analyzed using a microplate reader at 450 nm.

induced thrombus = assay: In vivo infrared fluorescence imaging of HILYTE FLUOR 750-conjugated protein at the thrombus; parameters: species or system mice; conditions: FIG. 5B
Protocol: Fifty micrograms of tPA or targeting peptide-tPA fusion and 4 nM HILYTE FLUOR™ 750 were mixed for 45 minutes at RT to promote conjugation. The solution was dialyzed with a 3.5-kDa-cut-off membrane overnight at 4° C. Time-course fluorescence measurements were made in mice with thrombi after intravenous injection of HILYTE FLUOR™ 750-labeled tPA or targeting peptide-tPA fusion protein. Fluorescence images were captured using an imaging system. Accumulation of HILYTE FLUOR™ 750 in the thrombus was quantified by subtracting background florescence intensity.
Fifty micrograms of thrombus affinity peptide-tPA was mixed with 4 nM HILYTE FLUOR™ 750 and incubated for 45 minutes at RT in the dark to promote the conjugation. Dialysis was performed with a 3.5-kDa-cut-off membrane overnight at 4° C. to remove excess dye. A time-course of infrared fluorescence images were acquired after intravenous injection of HILYTE FLUOR™ 750-conjugated fusion protein or tPA. Infrared fluorescence images of HILYTE FLUOR™ 750-conjugated protein were captured in living using an imaging system. Accumulation of HILYTE FLUOR™ 750 fluorescence signal in the induced thrombus was quantified and analyzed by software.

Row | dose-dependent thrombus-specific binding by ELISA (human thrombus) | binding affinity to human thrombus (ELISA, absorption at 450 nm) (human thrombus) | Substance | time after injection at which accumulation at the induced thrombus was seen (induced thrombus; dye-conjugated protein, i.v., mice with induced thrombus) | decrease of fluorescence intensity at the induced thrombus (induced thrombus; in 1 hour after i.v. injection)
1 | best thrombus-specific binding | relatively high binding affinity | FQNEWFHNFLHD [PC30] |  | 
2 | best thrombus-specific binding | relatively high binding affinity | LQKNPFDLVQIL [PC66] |  | 
3 |  |  | tPA: human recombinant tissue plasminogen activator without thrombus binding peptide, used as control | ≤ 5 min | 50%
4 | best thrombus-specific binding | relatively high binding affinity | TEANLSSWVFAR [PC39] |  | 
